Experimental data reported in patent US12729368B2, “Methods and compositions for generating oligodendrocyte progenitor cells” (Trailhead Biosystems Inc., priority 2022, dated 2026).
Values joined by “and” are separate entries in the source; they are usually repeats but may differ in a detail not shown here. Identical values can stand only once.

Legend:
Type in all cases: cell-based, human
[1] = test system: OPCs; experiment: HD-DoE 8-factor model for stage 4 on OPCs; settings: optimized for maximal expression of CNP at 1339
Procedure: (§1) To engineer the recipe of stage 4 of differentiation, 48 or 96 different combinations of effectors generated using Design-of-Experiments compression through D-optimality were robotically prepared. The effector combinations were prepared in a basal media and were subsequently added to the cells, which were treated with the stage 1, stage 2 and stage 3 differentiation media as described in the earlier examples to generate OPCs. […] Solutions within the tested space could then be explored to address desirability.

[2] = test system: OPCs; experiment: HD-DoE 12-factor model for stage 4 on OPCs, 6 days in culture
Procedure: as §1, with “desirability. […] Benarroch (2009) Neurology 72:1779-1785; Shi et al. (2019) Exp Ther Med, 18:1258-1266).” for “desirability.”

[3] = test system: cells cultured in stage 1 and stage 2 differentiation media; experiment: HD-DoE 8-factor model for stage 3 (version 2)
Procedure: To further differentiate the cells to an oligodendrocyte progenitor identity, additional HD-DoE experiments were performed on the cells that were cultured in stage 1 and stage 2 differentiation media. After 3 days, gene expression of cells in different combinatorial conditions were investigated. At this time, we focused on maximal expression of signature oligodendrocyte progenitor genes such as SOX10, OLIG1 and PDGFRa (Goldman and Kuypers (2015) Development 142:3983-95: Marques et al. (2016) Science 352:1326-1329). In one 8-factor model, individual and combinatorial effects of TTNPB (an RA agonist), CHIR99021, FGF-2, IGF-1, AGN193109, Purmorphamine, MHY1485 (a mTOR pathway agonist) and SC79 (an AKT pathway agonist) were tested to guide the cells toward a SOX10/PDGFRa positive population. […] CHIR99021 was also positive, with a factor contribution of 8.1 (FIG. 33).
Other positive factors were IGF-1, with a factor contribution of 11.2, CHIR99021, with a factor contribution of 8.5 and TTNPB, with a factor contribution below 1 (FIG. 34).
To confirm the impact of TTNPB, FGF-2 and IGF-1 on a bigger scale, we investigated the expression profile of a larger group of genes defining late oligodendrocyte progenitor population, such as ID2, CSPG4, FYN, SOX8, PLP1 and BCAN (Perlman et al. (2020). Glia 68:1291-1303; Goldman and Kuypers (2015) Development 142:3983-95; van Tilborg et al. (2018) Glia 66:221-238) and neuronal genes such as NEUROD1, NEUROG1 and NEUROG2 in presence of IGF-1, FGF-2 or TTNPB.

[4] = test system: cells cultured in stage 1 and stage 2 differentiation media; experiment: Two further HD-DoE models optimized for SOX10 (IGF-1, FGF-2, AGN193109)
Source text: According to literature, proteins such as FGF-2, IGF-1, PDGF-AA and NT-3 play an important role in oligodendrocyte differentiation (Goldman and Kuypers (2015) Development 142:3983-95). In the first model, FGF-2 had positive regulatory impact only on the expression level of SOX10 and IGF-1 on PDGFRa. Therefore, to further understand the impact of IGF-1 and FGF-2 on differentiation of cells and confirm their positive role, we included these factors in two other models and optimized the models for maximum expression of SOX10. This gene is one of the main transcription factors of oligodendrocytes, along with OLIG2 and NKX2-2 that has shown the potential to commit the stem cells to oligodendrocytes in reprogramming efforts (Wang et al, (2014) Proc Natl Arad Sri USA 111:E2885-94; García-León et al. (2018) Stem Cell Reports 10:655-672).

[5] = test system: pre-OPCs; experiment: HD-DoE 8-factor model for stage 2 (version 2) on pre-OPCs; settings: negative impact
Procedure: To engineer the recipe of stage 2 of differentiation, cells were first cultured in the stage 1 media described in Example 1, then, 48 or 96 different combinations of effectors generated using Design-of-Experiments compression through D-optimality were robotically prepared. The effector combinations were prepared in a basal media and were subsequently added to the cells, which were then allowed to differentiate. Three days later RNA extraction was performed, and gene expression was obtained using quantitative PCR analysis. The data was normalized and modeled using partial least squares regression analysis to the effector design, resulting in the generation of gene-specific models, which after model tuning for maximal predictive power, provided explanation of the effectors ability to control the expression of individual genes, combinatorically, and individually. Solutions within the tested space could then be explored to address desirability.
At this point, due to short duration of culture (only six days in vitro) we decided to focus on maximal expression of OLIG2 and maintenance of high expression of NKX2-2, while initiating expression of SOX10, OLIG1 and PDGFRa, to guide the cells towards oligodendrocyte fate (Emery and Lu (2015). Cold Spring Harb Perspect Biol. 7:a020461; Perlman et al. (2020). Glia 68:1291-1303; Goldman and Kuypers (2015) Development 142:3983-95). In one 8-factor model, the individual and combinatorial impact of CHIR99021 (a WNT pathway agonist), AGN193109 (an RA pathway antagonist), FGF-2 (an FGFR agonist), Purmorphamine (an SHH pathway agonist), AICAR (an AMPK agonist), GW3965 (an LXR pathway agonist), GW590735 (a PPAR-a agonist) and AZD3147 (a mTOR antagonist) on further differentiation of cells were tested.

[6] = test system: pre-OPCs; experiment: HD-DoE second 12-factor model for stage 2 (Purmorphamine with TTNPB, Biotin, Insulin etc.); settings: optimized for OLIG2; input for minimal expression (negative)
Procedure: To gain more information about the effect of Purmorphamine on differentiation of pre-OPCs to a more committed cell population, we tested this factor in two other models. In a 12-factor model, we included Purmorphamine, FGF2, AGN193109 and CHIR99021 along with 8 new inputs including TTNPB, Biotin, Insulin, propionate, DBZ, Yhhu3792, LDN193189 and Y-27632. […] In another 12-factor model, Purmorphamine was tested along with A 8301, CHIR99021, Dexamethasone, T3+T4, PD0325901, ZM336372, DBZ, BMP7, PD173074, SANT-1 and PDGF-AA.

[7] = test system: pre-OPCs; experiment: HD-DoE 12-factor model for stage 2 (version 1), 3 days on stage 1 pre-OPCs; settings: optimized for maximum expression of OLIG2 at 1841.6; negative impact
Source text: To engineer the recipe of stage 2 of differentiation, cells were first cultured in the stage 1 media described in Example 1 and then treated with combinations of 8 or 12 factors for 3 days and the gene expression of cells in each condition was modeled. At this point, due to short duration of culture (only six days in vitro), we decided to focus on maximal expression of OLIG2 and maintenance of high expression of NKX2-2, while initiating expression of SOX10, OLIG1 and PDGFRa, to guide the cells towards oligodendrocyte fate (Emery and Lu (2015). Cold Spring Harb Perspect Biol. 7:a020461; Perlman et al. (2020). Glia 68:1291-1303; Goldman and. Kuypers (2015) Development 142:3983-95).
In one 12-factor model, the individual and combinatorial impact of SUN 11602 an agonist for FGF signaling pathway, FGF2, Activin A an activator of one of the receptors of TGF-b superfamily, A 8301, an inhibitor of TGF-b pathway, CHIR99021 a WNT activator, AGN193109 a RA antagonist, MK2206 an AKT inhibitor, Purmorphamine an agonist of SHH signaling pathway, AZD3147 an antagonist of mTOR pathway, MHY1485 an agonist of mTOR pathway, SC79 an agonist of AKT pathway and G06983 an inhibitor of PKC pathway, were tested.
Dynamic profile analysis was used to assess the expression levels of other genes of interests, such as NKX2-2, OLIG1 and SOX10, while the model is maximized for OLIG2. Activin A and SUN 11602 were brought down to zero due to their very low factor contribution. We observed when the model is optimized, the expression level of NKX2-2 is at 3000, PDGFRa at 1000, OLIG1 at 80 and SOX10 at 15 (FIG. 12).

[8] = optimized for CNP at 1790, negative impact
[9] = optimized for CNP at 1790, positive

Compound: N[C@@H](Cc1cc(I)c(Oc2ccc(O)c(I)c2)c(I)c1)C(=O)O [T3]
- factor contribution ([1]; positive): 18
- effect on other OL genes and neuronal gene NeuroG1 ([2]; factor effect plots): can upregulate other OL genes such as PLP1, PTGDS, KLK6 and MBP while downregulating neuronal gene NeuroG1
- factor contribution [2, 8]: 1.2

Compound: IGF-1: IGFR activator (insulin-like growth factor 1)
- effect on late OPC genes and neuronal genes ([3]; factor plots vs concentration): expression levels of OPC genes increased as the concentration of IGF-1 increased, while neuronal genes decreased
- factor contribution ([3]; optimized for maximum expression of PDGFRa at 853.4, positive): 11.2
- factor contribution ([1]; positive): below 1
- factor contribution [2, 9]: 5
- impact on the expression level of SOX10 ([4]; two other models optimized for SOX10): positive impact

Compound: Cc1ccc(C2=CCC(C)(C)c3ccc(C#Cc4ccc(C(=O)O)cc4)cc32)cc1 [AGN193109]
- factor contribution ([5]; optimized for maximum expression of OLIG1 at 454.7): 25.3
- factor contribution ([5]; optimized for maximum expression of OLIG2 at 3325): 25.8
- factor contribution [6]: 18.3
- factor contribution [7]: 23.2
- factor contribution ([4]; increasing level of SOX10, positive effect): 16

Compound: Insulin: insulin receptor agonist
- factor contribution ([1]; positive): 10
- factor contribution [2, 9]: 3
- factor contribution ([2]; optimized for PLP1 at 3600, positive): 13 and 13.2

Compound: O=C(O)CCCC[C@@H]1SC[C@@H]2NC(=O)N[C@@H]21 [Biotin]
- factor contribution ([1]; negative impact): 12
- factor contribution [2, 8]: 16 and 16.5
